Assay results: US20100021989A1, “COMPOSITIONS AND METHODS OF CONTROLLING AND ADMINISTERING REDOX SPECIFIC FORMS OF DRUGS, FOODS AND DIETARY SUPPLEMENTS” (priority 2008, published 2010)
Like-named read-outs stand apart in the source and are kept apart here.

Legend:
[1] = pH 7.4; cited from earlier work
[2] = type: physicochemical
Text: An electrochemical cell was fabricated using a fine porosity glass frit in one-inch-diameter glass tubing. The electrochemical cell houses the counter electrode and keeps the Ag/AgCl reference electrode and platinum working electrode separate from the counter electrode. This addition to the system allowed the preparation of bulk solution. The working electrode and reference electrode compartment was continuously stirred using a small stir bar and a magnetic stirrer to minimize gradient effects at the working electrode. The EGCG solutions were oxidized using a positive potential to a visual end point. UV-visible spectral data were collected during these experiments, including the absorbance at 270 nm and 320 nm, corresponding to the phenol and quinone forms of EGCG, respectively. In addition, the open cell potential was recorded as experiments progressed. The active redox potentials and experimental endpoints were determined based on current and visual color changes to oligomers. Due to solution evaporation over time, the ratio of absorbance at 320 nm divided by the absorbance at 270 nm was determined in order to account for overall absorption increases. […] In addition, the visual change in solution color from clear to yellow and pink was also monitored as an indicator of degree of oxidation. Stirred EGCG solutions in 0.1 M phosphate buffer with 0.1 M KCl at pH 6.0 were monitored. The open circuit potential was initially 220 mV. […] A duplicate solution was left uncovered on the table next to the electrochemical cell as the control. After seven hours, no change in either solution at 270 and 320 nm was found. At this point the experimental potential was increased to 1000 mV for a further 16 hours (Table 3A). […] The pH of the solutions remained 6.0 throughout the experiment. All data support the forced oxidation of EGCG at pH 6.0. Solutions were allowed to sit for two more days to observe the stability of the electrochemically-induced changes (Table 3C). Solutions were pH-modified following electrochemical oxidation to observe stability. […] These samples were open to air, and no other precautions were taken to prevent oxidation by atmospheric oxygen.

HSV-1 (herpes simplex 1) = assay: Antiviral drug screen of EGCG, HSV-1; type: cell-based
[3] = cited from earlier work
[4] = system: HCMV (human cytomegalovirus); assay: Antiviral drug screen of EGCG, HCMV; type: cell-based
HSV-1 = HSV-1 inactivation: virus mixed with compound, infectivity titrated on Vero cells (reduction of virus titer); type: cell-based, herpes simplex virus 1; conditions: varying pH
Procedure: Experimental—HSV-1 and 2: Herpes simplex viruses were titrated by inoculation of 10-fold dilutions (HSV-1 was inoculated into Vero cell cultures, and HSV-2 was inoculated into CV1 cultures) in 96-well microtiter tissue culture plates. A virus dilution (0.1 ml) in RPMI 1640 with 1% fetal bovine serum (MM) was inoculated into each well with three wells per dilution. The plates were kept for 2 to 5 days, depending on the virus, and examined daily for cytopathic effect. Virus titers were calculated by the method of Reed and Muench (1938).
About 10^5 50% tissue culture infective doses (TCID50s) of virus were mixed with varying concentrations (12.5, 25, 50, 75 and 100 μM) of reduced and oxidized EGCG in MM and incubated at 37° C. for 30 min. The following samples were tested: The reduced form of EGCG (#1); the partially oxidized form of EGCG (#2); the quinone or fully oxidized form of EGCG with the addition of a copper catalyst (#3); and quinone or fully oxidized form of EGCG with the addition of a zinc catalyst (#4). In Samples #3 and #4, the addition of the copper and zinc catalysts, respectively, raised the pH to 9.0-9.5. These compounds were totally oxidized, thereby taking a quinone form. […]
Virus mixed with MM alone was used as a control. […] The 10^−1 to 10^−5 dilutions were inoculated into monolayers of Vero or CV1 cells, and the virus titers were determined as described above. […]

Bcl-xL = Bcl-xL (Homo sapiens, UniProt Q07817); conditions: Kitada et al., 2003; cited from earlier work
[5] = Control (no potential), pH 6.0, 43 hours
[6] = Control (no potential), pH 6.0, 55 hours
[7] = Control (no potential), pH 6.0, 68 hours
[8] = Control (no potential, uncovered), pH 6.0, 23 hours
[9] = Experiment, pH 6.0, 800 mV 7 h then 1000 mV 16 h, 23 hours
[10] = Experiment, pH 6.0, 1500 mV from 23 h, 43 hours
[11] = Experiment, pH 6.0, 1500 mV from 23 h, 55 hours
[12] = Experiment, pH 6.0, 1500 mV from 23 h, 68 hours
[13] = Experiment, pH 6.0, left to sit after electrochemical oxidation, 73 hours
[14] = Experiment, pH 6.0, left to sit after electrochemical oxidation, 79 hours
[15] = Experiment, pH 6.0, left to sit after electrochemical oxidation, 120 hours
[16] = cyclic voltammetry (Kilmartin and Hsu, 2003)

Sequence of Bcl-xL (Q07817 whole entry): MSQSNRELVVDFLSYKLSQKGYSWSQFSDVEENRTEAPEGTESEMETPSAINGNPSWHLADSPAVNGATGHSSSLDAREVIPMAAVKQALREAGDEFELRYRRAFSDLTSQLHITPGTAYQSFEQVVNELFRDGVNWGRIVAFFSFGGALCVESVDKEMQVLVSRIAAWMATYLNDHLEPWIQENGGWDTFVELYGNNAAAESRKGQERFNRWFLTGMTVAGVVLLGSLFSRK

Structure (SMILES): O=C(O[C@@H]1Cc2c(O)cc(O)cc2O[C@@H]1c1cc(O)c(O)c(O)c1)c1cc(O)c(O)c(O)c1 [EGCG, (−)-Epigallocatechingallate]
- Time to complete degradation [1]: 6 h
- Open circuit potential, initial ([2]; 0.1 M phosphate buffer with 0.1 M KCl, pH 6.0): 220 mV
- 320 nm/270 nm [2, 5]: 0.174
- Absorbance 270 nm [2, 5]: 0.448
- Absorbance 320 nm [2, 5]: 0.078
- 320 nm/270 nm [2, 6]: 0.178
- Absorbance 270 nm [2, 6]: 0.471
- Absorbance 320 nm [2, 6]: 0.084
- 320 nm/270 nm [2, 7]: 0.189
- Absorbance 270 nm [2, 7]: 0.438
- Absorbance 320 nm [2, 7]: 0.083
- 320 nm/270 nm [2, 8]: 0.170
- Absorbance 270 nm [2, 8]: 0.424
- Absorbance 320 nm [2, 8]: 0.072
- 320 nm/270 nm [2, 9]: 0.256
- Absorbance 270 nm [2, 9]: 0.418
- Absorbance 320 nm [2, 9]: 0.107
- 320 nm/270 nm [2, 10]: 0.396
- Absorbance 270 nm [2, 10]: 0.432
- Absorbance 320 nm [2, 10]: 0.171
- 320 nm/270 nm [2, 11]: 0.467
- Absorbance 270 nm [2, 11]: 0.422
- Absorbance 320 nm [2, 11]: 0.197
- 320 nm/270 nm [2, 12]: 0.522
- Absorbance 270 nm [2, 12]: 0.429
- Absorbance 320 nm [2, 12]: 0.224
- 320 nm/270 nm [2, 13]: 0.533
- Absorbance 270 nm [2, 13]: 0.430
- Absorbance 320 nm [2, 13]: 0.229
- 320 nm/270 nm [2, 14]: 0.538
- Absorbance 270 nm [2, 14]: 0.426
- Absorbance 320 nm [2, 14]: 0.229
- 320 nm/270 nm [2, 15]: 0.546
- Absorbance 270 nm [2, 15]: 0.436
- Absorbance 320 nm [2, 15]: 0.238
- Stability of electrochemically oxidized solution (320 nm absorbance) ([2]; pH 6): stable for over two days
- Oxidation of control sample ([2]; pH 6.0, no potential, uncovered, 23 hours): did not oxidize
- Stability of pH-modified solution after electrochemical oxidation (FIG. 14) ([2]; pH 6.26): relatively stable after 7 days
- EC-50 (HSV-1 (herpes simplex 1); HSV-1): 24.1 µg/mL
- EC-90 (HSV-1 (herpes simplex 1); HSV-1): 121 µg/mL
- CC-50 (HSV-1 (herpes simplex 1); cytotoxicity in HSV-1 screen): 857 µg/mL
- Oxidation peak potential, first range [3, 16]: 105 mV
- Oxidation peak potential, second range [3, 16]: 213 mV
- Reduction potential ([3]; pH 7, versus a normal hydrogen electrode): 430 mV
- EC-50 ([4]; HCMV): 6.9 µg/mL
- EC-90 ([4]; HCMV): 40 µg/mL
- CC-50 ([4]; cytotoxicity in HCMV screen): >40 µg/mL
- Effect of pH on activity against HSV-1 (FIG. 9) (HSV-1): greater antiviral activity at the more alkaline pH's
- Ki (Bcl-xL): nanomolar range
- CC50, TOXICITY Neutral Red Uptake (host cells): CC50 > 200
